Structures can show the parent of a compound that is named as a salt.
Experiments:
[1] = background statement; cited from earlier work
[2] = test system: various plant species; conditions: background statement; cited from earlier work
[3] = Solubility of NPMG-iminourea salts in water; type: physicochemical
Method: SOLUBILITY OF NPMG-IMINOUREA SALTS
NPMG Salt 20° C. (in grams)

O=C(O)CNCP(=O)(O)O [NPMG, N-phosphonomethylglycine]
solubility in water and conventional organic solvents (in words) [1]: relatively insoluble in water and conventional organic solvents | herbicidal effect (in words) [2]: very effective phytotoxicant or herbicide

O=C(O)CNCP(=O)(O)O [I, NPMG MONO (GUANIDINE) SALT]
Weight dissolved in 100 ml water at 20° C. [3]: 15.7 grams

O=C(O)CNCP(=O)(O)O [V, NPMG MONO (TETRA METHYL GUANIDINE) SALT]
Weight dissolved in 100 ml water at 20° C. ([3]; listed as 1,1,3,3 Tetra Methyl Guanidine): 165 grams

O=C(O)CNCP(=O)(O)O [II, NPMG MONO (AMINOGUANIDINE) SALT]
water solubility (in words) ([3]; in words): highly water-soluble | content of active materials in solutions readily prepared ([3]; water as preferred diluent): ≤ 60 % by weight
